The source of these data is patent publication US20240285583A1, “PHARMACEUTICAL COMPOSITION COMPRISING 1-(3-CYANO-1-ISOPROPYL-INDOL-5-YL)PYRAZOLE-4-CARBOXYLIC ACID” (LG CHEM, LTD., priority 2021, published 2024).

Series [1] has as its system gout patients. To be noted: patient group receiving the drug, previous results; cited from earlier work.
Series [2] relates to gout patient group. In words: Phase 2 clinical trial (NCT03934099): blood uric acid concentration in gout patients. The class given is in vivo, human. On the procedure: (§1) A phase 2 clinical trial was conducted to analyze the dosage, TEAEs, and the like when the compound of Formula 1 (1-(3-cyano-1-isopropyl-indol-5-yl)pyrazol-4-carboxylic acid; compound of Example 1) is administered to a gout patient group.
• 1. Written informed consent (signed and dated) provided voluntarily prior to the start of the study. • 2. Male or female aged from 18 to 75 • 3. History or experience of hyperuricemia and gout in accordance with the criteria of the American College of Rheumatology. • 4. Self-reported history of 2 or more gout flare within 12 months prior to screening visit (Visit 1). • 5. Blood uric acid (sUA) levels at Visit 1 of 6.0 mg/dL or more in subjects who were receiving urate lower therapy (ULT) with allopurinol, febuxostat, probenecid, or lesinurad; and SUA levels at Visit 1 of 8.0 mg/dL or more and 12.0 mg/dL or less in subjects who had no history of receiving the ULT or were not receiving the ULT at visit 1. • 6. SUA levels of 8.0 mg/dL or more and 12.0 mg/dL or less at Visit 3. • 7. Body mass index of 42 kg/m^2 or less at screening visit (Visit 1). • 8. Estimated glomerular filtration rate (eGFR) of 60 mL/min/1.73 m^2 or more at screening visit (Visit 1). • 9. Subjects of childbearing potential with a negative pregnancy test result at screening visit (Visit 1). […]

Series [3] concerns gout patient group. As to the kind of experiment: Phase 2 clinical trial (NCT03934099): analysis of TEAEs. The class given is in vivo, human. How it is done: as §1
Selected patients gave written informed consent according to institutional and study procedures. After screening and wash-out processes (days 26 to 33 pre-dose), a total of 156 patients were finally enrolled, and each patient was randomly assigned to 5 groups of 50 mg, 100 mg and 200 mg dosing groups of the compound of Example 1, a placebo group, and a febuxostat group. Patients in each group self-administered 1 tablet of a combination drug (colchicine, 0.6 mg/day) for the prevention of gout flare along with the assigned investigational drug (50 mg, 100 mg and 200 mg doses of the compound of Example 1, placebo, and 40 mg of febuxostat group) orally, once every morning, at about the same time each day, with water, regardless of food.
The drug was administered for 84 days by setting the first dosing day of the drug as day 1, and basic tests, blood uric acid concentration and the like were measured at clinic visits on 14 days (week 2), 28 days (week 4), 56 days (week 8), and 84 days (week 12) during the dosing period to determine whether TEAEs occurred. After the end of drug administration, a safety follow-up was performed for an additional 2 weeks (98 days, week 14).
Among all patient groups participating in the clinical trial, although the administration was stopped for 3 patients due to headache, gout flare in the left ankle, and liver dysfunction in the 100 mg dosing group of Example 1 and for 1 patient due to an increase in hepatic enzyme in the 200 mg dosing group, no significant treatment emergency adverse event (TEAE) was found in the remaining patient groups.

Regarding `Oc1ncnc2[nH]ncc12` [allopurinol], in series [1], the “patients with a blood uric acid concentration of less than 6 mg/dL” value was “about 40%”.

For `CC(C)n1cc(C#N)c2cc(-n3cc(C(=O)O)cn3)ccc21` [Example 1, 1-(3-cyano-1-isopropyl-indol-5-yl)pyrazole-4-carboxylic acid], the “blood uric acid lowering effect compared to febuxostat” value in series [2] (50 mg, 100 mg, 200 mg vs febuxostat 40 mg) is “equivalent or higher blood uric acid lowering effect”. Moreover, in series [2] (doses of 50 mg, 100 mg and 200 mg, reached within 2 weeks), the “blood uric acid concentration kept within the normal range during the dosing period” value is less than 6.0 mg/dL. Further, in series [3] (50 mg, 100 mg and 200 mg groups, vs placebo and febuxostat groups), the “incidence of TEAEs” value is listed as “did not show a significant difference in the incidence of TEAEs”. Besides, the “patients for whom administration was stopped” value in series [3] (100 mg dosing group, headache, gout flare in the left ankle, liver dysfunction) was found to be 3 patients; in series [3] (200 mg dosing group, increase in hepatic enzyme), 1 patient. Besides, the “adverse cardiovascular TEAEs” value in series [3] (all dosing groups) was “no reports of adverse cardiovascular TEAEs having a causal relationship”.
